According to ChEMBL document CHEMBL4507276 (2021):

Columns and labels:
[1] = target: T1, Tyrosine-protein kinase Tec (Homo sapiens) (UniProt P42680); assay: TEC Invitrogen selectivity data (BI); details: Compound concentration 3.0 uM
T1 sequence (whole entry): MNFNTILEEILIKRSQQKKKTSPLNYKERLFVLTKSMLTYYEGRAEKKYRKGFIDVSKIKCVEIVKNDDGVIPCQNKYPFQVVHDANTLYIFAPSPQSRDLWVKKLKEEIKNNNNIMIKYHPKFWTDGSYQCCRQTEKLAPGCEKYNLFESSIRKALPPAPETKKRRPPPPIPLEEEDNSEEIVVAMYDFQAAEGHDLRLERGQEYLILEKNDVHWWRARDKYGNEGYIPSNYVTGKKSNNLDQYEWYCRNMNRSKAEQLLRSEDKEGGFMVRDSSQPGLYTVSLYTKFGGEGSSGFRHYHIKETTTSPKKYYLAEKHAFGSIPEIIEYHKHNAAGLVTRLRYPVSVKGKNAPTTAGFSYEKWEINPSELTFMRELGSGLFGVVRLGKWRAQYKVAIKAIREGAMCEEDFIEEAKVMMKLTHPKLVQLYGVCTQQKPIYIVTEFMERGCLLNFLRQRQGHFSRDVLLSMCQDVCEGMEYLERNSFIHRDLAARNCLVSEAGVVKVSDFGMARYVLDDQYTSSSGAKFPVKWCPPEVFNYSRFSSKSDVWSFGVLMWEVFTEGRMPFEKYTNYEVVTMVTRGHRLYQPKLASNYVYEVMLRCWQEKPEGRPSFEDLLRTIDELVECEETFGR

[2] = target: Corticotropin-releasing factor receptor 1 (Homo sapiens) (UniProt P34998); assay: CRF1/H Cerep selectivity data (BI); details: Compound concentration 20.0 uM
Chain of Corticotropin-releasing factor receptor 1 (Homo sapiens) (P34998 whole entry): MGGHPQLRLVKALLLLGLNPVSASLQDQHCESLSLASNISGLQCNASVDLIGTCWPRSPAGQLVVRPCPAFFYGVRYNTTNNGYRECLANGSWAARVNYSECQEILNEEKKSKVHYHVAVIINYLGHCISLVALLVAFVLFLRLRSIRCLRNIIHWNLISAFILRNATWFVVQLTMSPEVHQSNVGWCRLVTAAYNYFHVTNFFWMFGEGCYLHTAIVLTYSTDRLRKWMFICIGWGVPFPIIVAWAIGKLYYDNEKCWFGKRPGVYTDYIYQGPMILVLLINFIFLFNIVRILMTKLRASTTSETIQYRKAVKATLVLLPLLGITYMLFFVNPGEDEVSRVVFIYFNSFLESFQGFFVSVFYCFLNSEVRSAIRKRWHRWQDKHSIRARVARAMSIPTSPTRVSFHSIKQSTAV

[3] = target: Glutamate NMDA receptor (Rattus norvegicus) (UniProt P35439+Q00959+Q00960+Q00961+Q62645+Q8VHN2+Q9R1M7); assay: PCP/R Cerep selectivity data (BI); format: protein-complex assay; details: Compound concentration 20.0 uM
[4] = target: 72 kDa type IV collagenase (Homo sapiens) (UniProt P08253); assay: MMP-2 (H) Cerep selectivity data (BI); details: Compound concentration 20.0 uM
Chain of 72 kDa type IV collagenase (Homo sapiens) (P08253 110-660 limits assumed): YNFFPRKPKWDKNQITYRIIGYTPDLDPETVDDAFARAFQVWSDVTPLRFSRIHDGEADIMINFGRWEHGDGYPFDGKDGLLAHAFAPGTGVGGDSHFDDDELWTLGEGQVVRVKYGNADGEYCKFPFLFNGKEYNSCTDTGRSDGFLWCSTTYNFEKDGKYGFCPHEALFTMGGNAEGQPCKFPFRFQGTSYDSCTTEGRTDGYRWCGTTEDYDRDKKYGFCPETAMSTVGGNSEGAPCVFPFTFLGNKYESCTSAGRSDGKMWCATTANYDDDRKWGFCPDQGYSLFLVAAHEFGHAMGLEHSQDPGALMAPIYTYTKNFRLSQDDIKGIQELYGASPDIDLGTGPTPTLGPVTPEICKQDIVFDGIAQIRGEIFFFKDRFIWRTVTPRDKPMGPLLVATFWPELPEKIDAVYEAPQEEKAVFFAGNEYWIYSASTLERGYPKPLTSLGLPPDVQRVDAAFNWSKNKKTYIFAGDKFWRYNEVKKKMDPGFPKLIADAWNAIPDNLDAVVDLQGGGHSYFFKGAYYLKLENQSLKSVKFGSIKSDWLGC

[5] = target: Serine/threonine-protein kinase Nek7 (Homo sapiens) (UniProt Q8TDX7); assay: NEK7 Invitrogen selectivity data (BI); details: Compound concentration 3.0 uM
Chain of Serine/threonine-protein kinase Nek7 (Homo sapiens) (Q8TDX7 whole entry, looked up): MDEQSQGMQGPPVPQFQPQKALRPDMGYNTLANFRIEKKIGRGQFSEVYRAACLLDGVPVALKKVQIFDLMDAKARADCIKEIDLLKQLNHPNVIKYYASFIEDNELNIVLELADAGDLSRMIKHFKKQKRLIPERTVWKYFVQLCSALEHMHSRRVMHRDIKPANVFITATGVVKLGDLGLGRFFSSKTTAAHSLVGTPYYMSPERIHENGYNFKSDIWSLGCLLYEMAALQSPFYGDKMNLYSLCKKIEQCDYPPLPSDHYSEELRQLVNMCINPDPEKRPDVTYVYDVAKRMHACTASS

[6] = target: Muscarinic acetylcholine receptor M3 (Homo sapiens) (UniProt P20309); details: Compound concentration 10.0 uM
Chain of Muscarinic acetylcholine receptor M3 (Homo sapiens) (P20309 whole entry, looked up): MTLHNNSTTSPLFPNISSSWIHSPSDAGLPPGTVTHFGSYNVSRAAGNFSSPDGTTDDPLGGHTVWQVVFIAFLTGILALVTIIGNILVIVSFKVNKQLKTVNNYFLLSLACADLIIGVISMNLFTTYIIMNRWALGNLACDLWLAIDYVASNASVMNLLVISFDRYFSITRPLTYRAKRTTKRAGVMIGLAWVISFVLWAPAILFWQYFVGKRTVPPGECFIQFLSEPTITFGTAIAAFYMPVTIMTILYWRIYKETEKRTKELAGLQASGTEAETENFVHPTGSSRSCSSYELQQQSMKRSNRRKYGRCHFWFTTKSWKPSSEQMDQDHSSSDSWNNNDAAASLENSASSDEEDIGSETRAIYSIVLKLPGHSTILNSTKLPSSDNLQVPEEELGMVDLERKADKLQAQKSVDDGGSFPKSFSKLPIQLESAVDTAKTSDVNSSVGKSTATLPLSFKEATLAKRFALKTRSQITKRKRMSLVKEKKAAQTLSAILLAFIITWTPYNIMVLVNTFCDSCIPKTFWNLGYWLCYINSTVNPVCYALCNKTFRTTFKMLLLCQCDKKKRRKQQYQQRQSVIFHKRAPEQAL

[7] = target: Misshapen-like kinase 1 (Homo sapiens) (UniProt Q8N4C8); assay: MINK1 Invitrogen selectivity data (BI); details: Compound concentration 3.0 uM
Chain of Misshapen-like kinase 1 (Homo sapiens) (Q8N4C8 whole entry, looked up): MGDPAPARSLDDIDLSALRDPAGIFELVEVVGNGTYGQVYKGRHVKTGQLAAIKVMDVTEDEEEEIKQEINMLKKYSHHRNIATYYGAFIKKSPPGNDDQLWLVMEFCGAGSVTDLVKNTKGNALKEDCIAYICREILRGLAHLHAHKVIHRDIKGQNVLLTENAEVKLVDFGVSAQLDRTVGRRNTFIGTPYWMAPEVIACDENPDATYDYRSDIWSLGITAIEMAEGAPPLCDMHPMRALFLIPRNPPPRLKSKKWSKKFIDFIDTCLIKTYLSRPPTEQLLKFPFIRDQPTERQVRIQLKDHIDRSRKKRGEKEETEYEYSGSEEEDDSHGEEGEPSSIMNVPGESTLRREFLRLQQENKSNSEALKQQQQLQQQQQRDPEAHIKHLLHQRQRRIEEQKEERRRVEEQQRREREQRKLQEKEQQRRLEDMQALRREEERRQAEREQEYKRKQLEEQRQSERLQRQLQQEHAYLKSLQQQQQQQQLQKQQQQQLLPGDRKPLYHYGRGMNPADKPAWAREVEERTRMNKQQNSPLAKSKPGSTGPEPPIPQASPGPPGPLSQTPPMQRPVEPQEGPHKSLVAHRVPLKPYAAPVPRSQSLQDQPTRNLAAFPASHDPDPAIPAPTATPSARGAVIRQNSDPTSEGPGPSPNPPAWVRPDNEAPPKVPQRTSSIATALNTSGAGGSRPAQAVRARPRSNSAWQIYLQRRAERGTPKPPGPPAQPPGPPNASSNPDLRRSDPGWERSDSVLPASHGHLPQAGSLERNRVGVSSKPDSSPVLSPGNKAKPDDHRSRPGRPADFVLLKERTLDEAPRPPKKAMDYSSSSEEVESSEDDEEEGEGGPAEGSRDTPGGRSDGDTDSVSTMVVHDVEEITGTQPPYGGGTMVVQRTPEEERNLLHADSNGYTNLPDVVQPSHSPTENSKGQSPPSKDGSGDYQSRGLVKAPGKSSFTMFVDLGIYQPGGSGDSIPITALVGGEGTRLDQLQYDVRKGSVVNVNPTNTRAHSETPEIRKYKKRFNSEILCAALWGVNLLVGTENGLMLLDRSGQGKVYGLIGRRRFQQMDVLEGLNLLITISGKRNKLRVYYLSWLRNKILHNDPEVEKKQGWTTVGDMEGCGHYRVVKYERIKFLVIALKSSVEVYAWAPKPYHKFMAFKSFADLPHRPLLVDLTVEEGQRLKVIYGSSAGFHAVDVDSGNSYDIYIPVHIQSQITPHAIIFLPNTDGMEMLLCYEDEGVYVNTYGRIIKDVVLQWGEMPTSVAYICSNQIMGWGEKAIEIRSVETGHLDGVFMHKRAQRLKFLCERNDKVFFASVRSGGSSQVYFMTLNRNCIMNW

[8] = target: Tyrosine-protein kinase Fer (Homo sapiens) (UniProt P16591); assay: FER Invitrogen selectivity data (BI); details: Compound concentration 3.0 uM
[9] = target: Acetylcholinesterase (Homo sapiens) (UniProt P22303); assay: ACHE/H Cerep selectivity data (BI); details: Compound concentration 20.0 uM
Chain of Acetylcholinesterase (Homo sapiens) (P22303 whole entry): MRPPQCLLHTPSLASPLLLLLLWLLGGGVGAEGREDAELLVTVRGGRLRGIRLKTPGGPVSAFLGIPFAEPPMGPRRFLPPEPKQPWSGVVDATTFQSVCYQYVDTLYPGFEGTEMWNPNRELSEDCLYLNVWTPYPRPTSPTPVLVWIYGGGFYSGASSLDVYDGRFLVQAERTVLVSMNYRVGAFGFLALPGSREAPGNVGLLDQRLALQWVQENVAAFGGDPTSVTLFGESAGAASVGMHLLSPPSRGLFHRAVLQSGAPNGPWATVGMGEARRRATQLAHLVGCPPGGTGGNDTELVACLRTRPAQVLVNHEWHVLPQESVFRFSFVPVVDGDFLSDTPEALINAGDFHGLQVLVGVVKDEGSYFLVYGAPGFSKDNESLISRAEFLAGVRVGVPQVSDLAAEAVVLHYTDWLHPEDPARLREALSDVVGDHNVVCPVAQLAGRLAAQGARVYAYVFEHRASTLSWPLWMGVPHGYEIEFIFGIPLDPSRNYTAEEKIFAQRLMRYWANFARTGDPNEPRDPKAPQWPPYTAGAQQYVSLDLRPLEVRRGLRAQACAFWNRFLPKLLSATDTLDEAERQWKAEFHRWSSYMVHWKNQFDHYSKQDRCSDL

[10] = target: Adenosine receptor A1 (Homo sapiens) (UniProt P30542); assay: A1H_AGON Cerep selectivity data (BI); details: filed as agonist, Compound concentration 20.0 uM
Chain of Adenosine receptor A1 (Homo sapiens) (P30542 whole entry): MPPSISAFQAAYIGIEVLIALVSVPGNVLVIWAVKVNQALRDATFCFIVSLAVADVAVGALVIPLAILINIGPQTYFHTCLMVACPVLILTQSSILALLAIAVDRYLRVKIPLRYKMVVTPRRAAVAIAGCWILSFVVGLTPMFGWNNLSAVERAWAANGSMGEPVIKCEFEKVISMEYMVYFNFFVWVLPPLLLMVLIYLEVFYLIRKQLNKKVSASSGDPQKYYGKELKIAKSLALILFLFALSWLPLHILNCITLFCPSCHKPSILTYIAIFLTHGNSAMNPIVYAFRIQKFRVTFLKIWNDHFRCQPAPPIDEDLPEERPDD

[11] = target: Sphingosine kinase 1 (Homo sapiens) (UniProt Q9NYA1); assay: SPHK1 Invitrogen selectivity data (BI); details: Compound concentration 3.0 uM
Chain of Sphingosine kinase 1 (Homo sapiens) (Q9NYA1 whole entry): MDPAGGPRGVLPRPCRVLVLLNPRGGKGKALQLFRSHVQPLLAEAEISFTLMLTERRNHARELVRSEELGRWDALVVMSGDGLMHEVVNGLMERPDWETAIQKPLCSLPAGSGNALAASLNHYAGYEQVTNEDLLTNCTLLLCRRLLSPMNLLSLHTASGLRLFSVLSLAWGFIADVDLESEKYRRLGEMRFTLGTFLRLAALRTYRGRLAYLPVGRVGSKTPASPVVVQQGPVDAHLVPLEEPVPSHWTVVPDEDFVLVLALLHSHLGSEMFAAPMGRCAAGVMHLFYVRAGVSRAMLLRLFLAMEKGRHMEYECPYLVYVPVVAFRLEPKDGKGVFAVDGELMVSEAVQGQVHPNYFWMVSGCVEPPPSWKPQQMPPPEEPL

[12] = target: T2, Mitogen-activated protein kinase kinase kinase 7 (Homo sapiens) (UniProt O43318); assay: MAP3K7_K7IP1 Invitrogen selectivity data (BI); details: Compound concentration 3.0 uM
T2 sequence (whole entry): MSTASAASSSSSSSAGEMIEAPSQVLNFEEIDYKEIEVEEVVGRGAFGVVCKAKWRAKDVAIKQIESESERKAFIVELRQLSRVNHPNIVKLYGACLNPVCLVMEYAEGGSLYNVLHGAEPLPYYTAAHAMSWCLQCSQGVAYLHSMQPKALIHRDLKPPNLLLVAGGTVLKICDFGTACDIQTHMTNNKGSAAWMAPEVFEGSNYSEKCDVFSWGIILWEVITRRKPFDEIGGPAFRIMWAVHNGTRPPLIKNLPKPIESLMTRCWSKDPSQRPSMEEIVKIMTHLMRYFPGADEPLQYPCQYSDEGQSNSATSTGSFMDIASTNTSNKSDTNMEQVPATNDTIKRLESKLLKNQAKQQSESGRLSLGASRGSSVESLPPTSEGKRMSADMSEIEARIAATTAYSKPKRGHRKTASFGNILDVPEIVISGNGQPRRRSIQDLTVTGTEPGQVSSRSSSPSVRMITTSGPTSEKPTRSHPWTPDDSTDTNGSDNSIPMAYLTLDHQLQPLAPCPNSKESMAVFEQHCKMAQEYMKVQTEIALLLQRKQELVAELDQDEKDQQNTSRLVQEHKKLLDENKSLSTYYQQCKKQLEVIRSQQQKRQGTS

[13] = target: T3, Discoidin domain-containing receptor 2 (Homo sapiens) (UniProt Q16832); assay: DDR2 Invitrogen selectivity data (BI); details: Compound concentration 3.0 uM
T3 sequence (whole entry): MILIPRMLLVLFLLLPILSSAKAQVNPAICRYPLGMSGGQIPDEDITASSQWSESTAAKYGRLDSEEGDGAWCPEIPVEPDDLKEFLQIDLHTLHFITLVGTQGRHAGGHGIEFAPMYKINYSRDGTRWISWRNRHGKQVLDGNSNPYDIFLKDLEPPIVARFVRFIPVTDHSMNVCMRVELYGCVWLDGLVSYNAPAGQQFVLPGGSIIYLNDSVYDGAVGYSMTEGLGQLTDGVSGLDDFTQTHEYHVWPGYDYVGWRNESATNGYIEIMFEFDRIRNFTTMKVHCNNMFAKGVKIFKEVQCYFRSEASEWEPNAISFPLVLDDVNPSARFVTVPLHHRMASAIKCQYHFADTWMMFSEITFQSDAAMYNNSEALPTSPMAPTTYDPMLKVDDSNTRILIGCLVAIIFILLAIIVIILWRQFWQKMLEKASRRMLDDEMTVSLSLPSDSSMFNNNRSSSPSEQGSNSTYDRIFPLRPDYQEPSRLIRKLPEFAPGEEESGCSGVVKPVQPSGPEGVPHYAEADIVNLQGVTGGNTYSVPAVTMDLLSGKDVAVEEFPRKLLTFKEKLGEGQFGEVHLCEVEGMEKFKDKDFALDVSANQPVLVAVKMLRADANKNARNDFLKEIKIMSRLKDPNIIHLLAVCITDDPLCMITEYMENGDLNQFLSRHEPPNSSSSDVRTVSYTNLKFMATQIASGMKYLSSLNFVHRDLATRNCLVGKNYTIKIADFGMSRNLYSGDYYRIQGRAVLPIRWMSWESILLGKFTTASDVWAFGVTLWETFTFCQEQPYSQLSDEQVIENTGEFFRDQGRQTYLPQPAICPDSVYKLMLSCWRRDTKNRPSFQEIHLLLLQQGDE

[14] = target: Dual specificity mitogen-activated protein kinase kinase 2 (Homo sapiens) (UniProt P36507); assay: MAP2K2 Invitrogen selectivity data (BI); details: Compound concentration 3.0 uM
Chain of Dual specificity mitogen-activated protein kinase kinase 2 (Homo sapiens) (P36507 whole entry): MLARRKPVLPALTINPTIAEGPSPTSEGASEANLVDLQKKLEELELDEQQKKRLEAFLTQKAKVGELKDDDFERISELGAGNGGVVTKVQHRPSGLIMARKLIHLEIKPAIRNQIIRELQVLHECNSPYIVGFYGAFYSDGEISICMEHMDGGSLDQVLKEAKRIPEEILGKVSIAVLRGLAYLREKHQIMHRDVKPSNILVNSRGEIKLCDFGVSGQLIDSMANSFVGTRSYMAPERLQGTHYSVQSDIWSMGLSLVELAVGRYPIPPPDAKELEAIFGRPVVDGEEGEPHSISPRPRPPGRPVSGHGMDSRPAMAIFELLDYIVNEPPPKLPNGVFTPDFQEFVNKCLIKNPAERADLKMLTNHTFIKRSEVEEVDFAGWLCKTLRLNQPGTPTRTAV

CN(C)C(=O)Cn1cc(-c2nc([C@@](C)(c3ccc(-c4cnc(N)nc4)cc3)C3CC3)no2)cn1 [BI 665915]
inactive: residual activity [1] 103% | residual activity [2] 148% | residual activity [3] 100% | residual activity [4] 96% | residual activity [5] 99% | inhibition [6] 7.43% | residual activity [7] 93% | residual activity [8] 98.5% | residual activity [9] 98% | residual activity [10] 81% | residual activity [11] 95.5% | residual activity [12] 87% | residual activity [13] 96% | residual activity [14] 96%
